Assay results: US11597724B2, “Herbicidally active 3-phenylisoxazoline-5-carboxamides of tetrahydro and dihydrofuran carboxylic acids and esters” (Bayer Aktiengesellschaft, priority 2017, dated 2023)

How the values were obtained:
Type in all cases: in vivo
[1] = Pre-emergence treatment, summary over harmful plants; details: 504 h, application rate of 0.08 kg of active substance or less per hectare, read-out: herbicidal action, pre-emergence treatment (very good activity)
Text: 1. Pre-Emergence Herbicidal Action and Crop Plant Compatibility
(§1) Seeds of monocotyledonous and dicotyledonous weed plants and crop plants are placed in plastic or wood fiber pots and covered with soil. The compounds of the invention, formulated in the form of wettable powders (WP) or as emulsion concentrates (EC), are then applied onto the surface of the covering soil as aqueous suspension or emulsion with addition of 0.5% additive at a water application rate of 600 l/ha (converted). After the treatment, the pots are placed in a greenhouse and kept under good growth conditions for the trial plants. After about 3 weeks, the effect of the preparations is scored visually in comparison with untreated controls as percentages. For example, 100% activity=the plants have died, 0% activity=like control plants.
As shown by the results, compounds according to the invention such as, for example, the compounds No. I-21 and other compounds from the tables (for example I-10, I-26, I-09, I-30, I-28, I-29, I-27, I-01, I-06, I-34, I-19, I-11, I-36, I-37, I-38, I-41, I-42, I-43, I-44, I-46, I-49) have, when used for pre-emergence treatment, very good activity (80% to 100% herbicidal action) against harmful plants such as Abutilon theophrasti, Alopecurus myosuroides, Amaranthus retroflexus, Avena fatua, Echinochloa crus-galli, Hordeum murinum, Lolium rigidum, Pharbitis purpurea, Polygonum convolvulus, Setaria viridis, Stellaria media, Veronica persica and Viola tricolor at an application rate of 0.08 kg of active substance or less per hectare.

[2] = system: Viola tricolor; assay: Pre-emergence herbicidal activity against VIOTR; details: dosage 80 g/ha
Text: as §1, with “1. Pre-Emergence Herbicidal Action and Crop Plant Compatibility Seeds of” for “Seeds of”, “control plants. VIOTR: Viola tricolor” for “control plants.”

[3] = system: Abutilon theophrasti; assay: Post-emergence herbicidal activity against ABUTH; details: Abutilon theophrasti, 504 h, dosage 320 g/ha, rated about 3 weeks after treatment
Procedure, shortened: (§2)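 Greenhouse-grown plants treated at one-leaf stage, 2 to 3 weeks after sowing, with WP or EC formulations sprayed as aqueous suspension/emulsion plus 0.5% additive at 600 l/ha. Activity rated visually about 3 weeks later versus untreated controls (100% = plants dead, 0% = like control).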

[4] = system: Setaria viridis; assay: Pre-emergence herbicidal activity against SETVI; details: dosage 80 g/ha
Procedure, shortened: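 Seeds sown in pots, soil surface sprayed pre-emergence with WP or EC formulations in water (600 l/ha) plus 0.5% additive. Greenhouse growth for about 3 weeks. Damage scored visually as % versus untreated controls (100% = plants dead).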

[5] = system: Lolium rigidum; assay: Pre-emergence herbicidal activity against LOLRI; details: dosage 80 g/ha
Text: as §1, with “1. Pre-Emergence Herbicidal Action and Crop Plant Compatibility Seeds of” for “Seeds of”, “control plants. LOLRI: Lolium rigidum PHBPU: Pharbitis purpurea” for “control plants.”

[6] = system: Hordeum murinum; assay: Post-emergence herbicidal activity against HORMU; details: Hordeum murinum, 504 h, dosage 320 g/ha
Procedure, shortened: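 Greenhouse pot plants sprayed post-emergence at one-leaf stage (2-3 weeks after sowing) with WP or EC formulations, 0.5% additive, 600 l/ha water. Visual rating about 3 weeks later versus untreated controls: 100% = plants dead, 0% = like control.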

[7] = system: Alopecurus myosuroides; assay: Post-emergence herbicidal activity against ALOMY; details: Alopecurus myosuroides, 504 h, dosage 320 g/ha, rated about 3 weeks after treatment
Procedure, shortened: as §2

[8] = system: Veronica persica; assay: Pre-emergence herbicidal activity against VERPE; details: dosage 80 g/ha
Procedure, shortened: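 Weed seeds sown in pots and covered with soil, then WP or EC formulations sprayed onto the soil surface as aqueous suspension/emulsion with 0.5% additive at 600 l/ha water. Kept in greenhouse; visual percent effect versus untreated controls scored after about 3 weeks (100% = plants dead).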

Compound: C=C[C@]1(C(=O)N[C@H]2CO[C@@H](C(=O)OC)C2)CC(c2cc(F)cc(F)c2)=NO1 (single isomer, unassigned) [I-11]
- pest or weed control at 80 g/ha [1]: 80 to 100%
- Pre-emergence herbicidal activity against VIOTR in % [2]: 100%
- pest or weed control at 320 g/ha [3]: 90%
- Pre-emergence herbicidal activity against SETVI in % [4]: 100%
- Pre-emergence herbicidal activity against LOLRI in % [5]: 100%
- pest or weed control at 320 g/ha [6]: 100%
- pest or weed control at 320 g/ha [7]: 90%
- Pre-emergence herbicidal activity against VERPE in % [8]: 100%
